Patent EP2926811A1, “ARTEMETHER-CONTAINING PHARMACEUTICAL COMPOSITION, PREPARATION, AND USE THEREOF” (Kunming Pharmaceutical Corp., priority 2012, dated 2014)
Read-outs that look alike come from different tables or passages of the source.

Experiments:
Type in all cases: cell-based
7 human tumor cell lines = test: modified MTT method, summary over the panel of human tumor cell lines; settings: on HL-60, K562, MKN-28
Description: (§1) HL-60: (human promyelocytic leukemia cell line); K562 (human chronic myelocytic leukemia cell line); HT-29 (human colon cancer cell line); PC-3 (human prostate cancer cell line); A549 (human non-small cell lung cancer cell line); MKN-28 (human gastric cancer cell line); Hep2 (human laryngeal cancer cell line), all of which were purchased from Cell Bank of Shanghai Institutes for Biological Sciences, the Chinese Academy of Sciences.
(§2) Influence of the five test samples on the proliferation of 7 human tumor cell lines was determined via a modified MTT method.
Cells in logarithmic growth phase were taken, adjusted to a certain concentration and then added into a 96 well culture plate. After culture of adherent cells for a period until adherence, the test samples were added; and for suspension cells, the test samples were added after inoculation. […] After dissolving in uniformity, it was continued to be placed in the incubator at 37°C, 5% CO2 for a period of time, and the OD value of each well was determined under a wavelength of 570 nm with a microplate reader, according to which the results were calculated.
(§3) The inhibition rate was calculated by using Microsoft Excel 2003, and median inhibitory concentration IC50 was calculated with a LOGIT method, which was used as an indicator for judging the inhibitory capability.

K562 cells = test: modified MTT method, proliferation of K562 cells; settings: Homo sapiens, read-out: IC50 on the growth of K562 cells
Method: (§4) Five test concentrations 2, 10, 50, 250 and 500 µM were set for each of five derivatives of artemisinin, artemether drug substance, artemisinin, dihydroartemisinin, artesunate were dissolved with dimethyl sulfoxide (DMSO), while the lyophilized powder of artemether was dissolved with normal saline (N.S.), followed by addition of a certain amount of RPMI 1640 complete culture solution to formulate a high-concentration solution, and each of the low-concentration solutions was formulated by proportionate dilution from the high-concentration solution.
(§5) The concentrations of DMSO contained in the solutions at the two relatively high concentrations 500 and 250 µM for the artemether drug substance, artemisinin, dihydroartemisinin, artesunate, used as solvent controls, were formulated with […] culture solution, at which time the test concentrations of DMSO were 1% and 0.5%. The concentrations of the excipients contained in the solutions at the two relatively high concentrations 500 and 250 µM for the preparation of lyophilized powder of artemether were used as solvent controls.
(§6) The positive control was an anti-cancer drug adriamycin (ADM), which was set at three test concentrations (final concentrations) of 0.1, 1 and 10 µg/ml. To ADM stock solution (1 mg/ml) a certain amount of PRMI 1640 complete culture solution was added, to formulate a high-concentration solution, and each of the low-concentration solutions were formulated by proportionate dilutions from the high-concentration solution.
as §1, §2
(§7) Cells in logarithmic growth phase were taken, adjusted to a certain concentration and then added into a 96 well culture plate. After culture of adherent cells for a period until adherence, the test samples were added; and for suspension cells, the test samples were added after inoculation. 5 test concentrations 2, 10, 50, 250 and 500 µM were set, with 3 parallel wells for each concentration, 10 µl/well; the solvent controls were 0.5% and 1% of isovolumetric DMSO, and the positive controls was ADM at 3 concentrations 0.1, 1 and 10 µg/ml. The samples were loaded followed by culture for a period of time in an incubator at 37°C, 5% CO2, followed by addition of MTT (5 mg/ml) at 20 µl/well, and continued to be cultured for a period of time and added with a three-combined solution [10% SDS - 5% isobutanol - 0.012 mol/L HCl (W/V/V)]. After dissolving in uniformity, it was continued to be placed in the incubator at 37°C, 5% CO2 for a period of time, and the OD value of each well was determined under a wavelength of 570 nm with a microplate reader, according to which the results were calculated.
(§8) The cellular proliferation inhibition rate was calculated in accordance with the following equation: Inhibition rate (%) = (OD valuecontrol well-OD valuesample well)/OD valuecontrol well × 100% [formula]
(§9) When the inhibition rate of DMSO on cells was more than 15%, calculation was carried out using the following equation: Inhibition rate (%) = (OD valuesolvent group-OD valueadministered well)/OD valuesolvent group × 100% [formula]
as §3

HT-29 cells = test: modified MTT method, proliferation of HT-29 cells; settings: Homo sapiens
Method: as §4, §5, §6, §1, §2, §7, §8, §9, §3
(§10) According to the results of preliminary screening, further experiments were adjusted such that more sensitive cell lines were screened out. […]

HL-60 cells = test: modified MTT method, proliferation of HL-60 cells; settings: Homo sapiens, read-out: IC50 on the growth of HL-60 cells
Method: as §4, §5, §6, §1, §2, §7, §8, §9, §3

PC-3 cells = test: modified MTT method, proliferation of PC-3 cells; settings: Homo sapiens, read-out: IC50 on the growth of PC-3 cells
Method: as §4, §5, §6, §1, §2, §7, §8, §9, §3

Hep2 cells = test: modified MTT method, proliferation of Hep2 cells; settings: Homo sapiens, HEp-2, 72 h, secondary screening
Method: as §4, §5, §6, §1, §2, §7, §8, §9, §3, §10

MKN-28 cells = test: modified MTT method, proliferation of MKN-28 cells; settings: Homo sapiens, MKN-28, 72 h, secondary screening
Method: as §4, §5, §6, §1, §2, §7, §8, §9, §3, §10

A549 cells = test: modified MTT method, proliferation of A549 cells; settings: Homo sapiens, read-out: IC50 on the growth of A549 cells
Method: as §4, §5, §6, §1, §2, §7, §8, §9, §3

IC50 (K562 cells; K562, 24 h, Batch 1, 24 h): > 1000 µM
IC50 (K562 cells; K562, 24 h, Batch 2, 24 h): > 1000 µM
IC50 (K562 cells; K562, 24 h, Batch 3, 24 h): 494 µM
IC50 (K562 cells; K562, 48 h, Batch 1, 48 h): 322 µM
IC50 (K562 cells; K562, 48 h, Batch 2, 48 h): > 1000 µM
IC50 (K562 cells; K562, 48 h, Batch 3, 48 h): 141 µM
IC50 (K562 cells; K562, 72 h, Batch 1, 72 h): 39.3 µM
IC50 (K562 cells; K562, 72 h, Batch 2, 72 h): > 1000 µM
IC50 (K562 cells; K562, 72 h, Batch 3, 72 h): 90.1 µM
IC50 (HT-29 cells; HT-29, 24 h, preliminary screening, Batch 1, 24 h, read-out: IC50 on the growth of HT-29 cells): > 1000 µM
IC50 (HT-29 cells; HT-29, 24 h, preliminary screening, Batch 2, 24 h, read-out: IC50 on the growth of HT-29 cells): 323 µM
IC50 (HT-29 cells; HT-29, 48 h, preliminary screening, Batch 1, 48 h, read-out: IC50 on the growth of HT-29 cells): > 1000 µM
IC50 (HT-29 cells; HT-29, 48 h, preliminary screening, Batch 2, 48 h, read-out: IC50 on the growth of HT-29 cells): > 1000 µM
IC50 (HT-29 cells; HT-29, 72 h, preliminary screening, Batch 1, 72 h, read-out: IC50 on the growth of HT-29 cells): > 1000 µM
IC50 (HT-29 cells; HT-29, 72 h, preliminary screening, Batch 2, 72 h, read-out: IC50 on the growth of HT-29 cells): 438 µM
IC50 (HT-29 cells; HT-29, 72 h, secondary screening, 72 h, Batch 1, read-out: IC50 on the growth of HT-29 cells (72 h)): 328 µM
IC50 (HT-29 cells; HT-29, 72 h, secondary screening, 72 h, Batch 2, read-out: IC50 on the growth of HT-29 cells (72 h)): 306 µM
IC50 (HT-29 cells; HT-29, 72 h, secondary screening, 72 h, Batch 3, read-out: IC50 on the growth of HT-29 cells (72 h)): 200 µM
IC50 (HT-29 cells; HT-29, 72 h, secondary screening, 72 h, average, read-out: IC50 on the growth of HT-29 cells (72 h)): 225 µM
IC50 (HL-60 cells; HL-60, 24 h, Batch 1, 24 h): > 1000 µM
IC50 (HL-60 cells; HL-60, 24 h, Batch 2, 24 h): 269 µM
IC50 (HL-60 cells; HL-60, 48 h, Batch 1, 48 h): > 1000 µM
IC50 (HL-60 cells; HL-60, 48 h, Batch 2, 48 h): 39.5 µM
IC50 (HL-60 cells; HL-60, 72 h, Batch 1, 72 h): > 1000 µM
IC50 (HL-60 cells; HL-60, 72 h, Batch 2, 72 h): 145 µM
IC50 (PC-3 cells; PC-3, 24 h, Batch 1, 24 h): > 1000 µM
IC50 (PC-3 cells; PC-3, 24 h, Batch 2, 24 h): > 1000 µM
IC50 (PC-3 cells; PC-3, 48 h, Batch 1, 48 h): > 1000 µM
IC50 (PC-3 cells; PC-3, 48 h, Batch 2, 48 h): > 1000 µM
IC50 (PC-3 cells; PC-3, 72 h, Batch 1, 72 h): > 1000 µM
IC50 (PC-3 cells; PC-3, 72 h, Batch 2, 72 h): > 1000 µM
IC50 (MKN-28 cells; Average, read-out: IC50 on the growth of MKN-28 cells (72 h)): 27.9 µM
IC50 (MKN-28 cells; Batch 1, read-out: IC50 on the growth of MKN-28 cells (72 h)): 35.3 µM
IC50 (MKN-28 cells; Batch 2, read-out: IC50 on the growth of MKN-28 cells (72 h)): 28.1 µM
IC50 (MKN-28 cells; Batch 3, read-out: IC50 on the growth of MKN-28 cells (72 h)): 21.4 µM
IC50 (A549 cells; A549, 24 h, Batch 1, 24 h): > 1000 µM
IC50 (A549 cells; A549, 24 h, Batch 2, 24 h): > 1000 µM
IC50 (A549 cells; A549, 48 h, Batch 1, 48 h): > 1000 µM
IC50 (A549 cells; A549, 48 h, Batch 2, 48 h): 272 µM
IC50 (A549 cells; A549, 72 h, Batch 1, 72 h): > 1000 µM
IC50 (A549 cells; A549, 72 h, Batch 2, 72 h): 225 µM
Structure (SMILES): C[C@H]1[C@H](OC(=O)CCC(=O)O)O[C@@H]2O[C@@]3(C)CC[C@H]4[C@H](C)CC[C@@H]1[C@@]24OO3 [artesunate]
inhibitory effect in vitro (7 human tumor cell lines): only shows inhibitory effect
IC50 (Hep2 cells; Batch 1, read-out: IC50 on the growth of Hep2 cells (72 h)): 119 µM
IC50 (Hep2 cells; Batch 2, read-out: IC50 on the growth of Hep2 cells (72 h)): 93.2 µM
IC50 (Hep2 cells; Batch 3, read-out: IC50 on the growth of Hep2 cells (72 h)): 212 µM
IC50 (Hep2 cells; average, read-out: IC50 on the growth of Hep2 cells (72 h)): 149 µM
